One test concerns the target T1, HCV NS5B RNA polymerase (Hepatitis C virus genotype 1b, UniProt P26663).
T1 construct: purified hepatitis C NS5B (form with 21 amino acids C-terminally truncated)
Put plainly: Inhibition of HCV NS5B RNA-dependent RNA polymerase on heteromeric RNA template t500 (filter-binding, radiolabelled NTP). It is filed as biochemical. As to conditions: test concentration not given (compounds tested up to 100 μM); for % I (ATP), Percent Inhibition of HCV NS5B RNA polymerase: [alpha-32P]-ATP label; for % I (GTP), Percent Inhibition of HCV NS5B RNA polymerase: [alpha-32P]-GTP label. As for the experimental part:
This assay can be used to measure the ability of the nucleoside triphosphates of the present invention to inhibit the enzymatic activity of the RNA-dependent RNA polymerase (NS5B) of the hepatitis C virus (HCV) on a heteromeric RNA template.
The following describes assay buffer conditions: (50 μl-total/reaction) • 20 mM Tris, pH 7.5 • 50 μM EDTA • 5 mM DTT • 2 mM MgCl2 • 80 mM KCl • 0.4 U/μl RNAsin (Promega, stock is 40 units/μl) • 0.75 μg t500 (a 500 nt RNA made using T7 runoff transcription with a sequence from the NS2/3 region of the hepatitis C genome) • 1.6 μg purified hepatitis C NS5B (form with 21 amino acids C-terminally truncated) • 1 μM A, C, U, GTP (nucleoside triphosphate mix) • [alpha-^32P]-GTP or [alpha-^32P]-ATP The compounds were tested at various concentrations up to 100 μM final concentration.
An appropriate volume of reaction buffer was made including enzyme and template t500. Nucleoside derivatives of the present invention were pipetted into the wells of a 96-well plate. A mixture of nucleoside triphosphates (NTP's), including the radiolabeled GTP, was made and pipetted into the wells of a 96-well plate. The reaction was initiated by addition of the enzyme-template reaction solution and allowed to proceed at room temperature for 1-2 hours.
The reaction was quenched by addition of 20 μl 0.5 M EDTA, pH 8.0. Blank reactions in which the quench solution is added to the NTPs prior to the addition of the reaction buffer were included.
50 μL of the quenched reaction was spotted onto DE81 filter disks (Whatman) and allowed to dry for 30 minutes. The filters were washed with 0.3 M ammonium formate, pH 8 (150 mL/wash until the cpm in 1 mL wash is less than 100, usually 6 washes). The filters were counted in 5-mL scintillation fluid in a scintillation counter.
The percentage of inhibition is calculated according to the following equation: %Inhibition={1−(cpm in test reaction−cpm in blank)/(cpm in control reaction−cpm in blank)}×100.

The next test has as its target wild-type HIV RT (Human immunodeficiency virus type 1 group M subtype B, UniProt P04585). Kind of test: Inhibition of HIV-RT activity (RNA template t500 annealed to DNA primer pD500, [alpha-33P]-dATP incorporation). The format is biochemical. As to conditions: for inhibition at 10 µM: read-out: % I (10 μM), Inhibition of HIV-RT; for inhibition at 100 µM: read-out: % I (100 μM), Inhibition of HIV-RT.

T1 sequence (P26663 2420-2989): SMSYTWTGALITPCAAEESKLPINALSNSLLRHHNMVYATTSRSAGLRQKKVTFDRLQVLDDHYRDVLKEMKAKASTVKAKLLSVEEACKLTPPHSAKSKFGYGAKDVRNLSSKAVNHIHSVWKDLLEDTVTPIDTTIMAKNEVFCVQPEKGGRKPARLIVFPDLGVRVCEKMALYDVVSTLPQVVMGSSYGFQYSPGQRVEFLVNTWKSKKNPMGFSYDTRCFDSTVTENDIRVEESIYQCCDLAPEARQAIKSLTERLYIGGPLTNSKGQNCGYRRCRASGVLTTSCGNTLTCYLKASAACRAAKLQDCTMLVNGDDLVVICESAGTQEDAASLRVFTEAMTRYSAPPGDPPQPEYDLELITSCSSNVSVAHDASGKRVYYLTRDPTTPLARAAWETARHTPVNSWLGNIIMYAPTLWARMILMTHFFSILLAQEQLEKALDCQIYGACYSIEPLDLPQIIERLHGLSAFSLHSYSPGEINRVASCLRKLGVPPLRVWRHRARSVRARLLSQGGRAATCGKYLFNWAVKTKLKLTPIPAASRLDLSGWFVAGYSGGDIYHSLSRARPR

Consider “2′-Deoxythymidine-5′-(α-P-(amino triphosphate) [compound 17 of Table 2]”, for which, on HCV NS5B RNA polymerase, the “% I (ATP), Percent Inhibition of HCV NS5B RNA polymerase” value was 0.1% and the “% I (GTP), Percent Inhibition of HCV NS5B RNA polymerase” value is −6%.

For the molecule “2′-O-Methyl guanosine-5′-(α-P-(N-butyl)triphosphate) [compound 23 of Table 2]”, on HCV NS5B RNA polymerase, the “% I (ATP), Percent Inhibition of HCV NS5B RNA polymerase” value was determined as 90% and the “% I (GTP), Percent Inhibition of HCV NS5B RNA polymerase” value was 91%.

On to `COc1cc(CN)cc(OC)c1` [compound 10], for which, at wild-type HIV RT, the inhibition at 10 µM is -6.41% and the inhibition at 100 µM is -11.9%.

For `NCC1COCCOCCOCCOCCO1` (stereo not shown) [compound 11], on wild-type HIV RT, the inhibition at 10 µM turned out to be 5.37% and the inhibition at 100 µM is -17.2%.

On to `NCc1ccc(-c2ccccc2)cc1` [compound 14], for which, on wild-type HIV RT, the inhibition at 10 µM is -2.25% and the inhibition at 100 µM is -12.9%.

A word on the inhibition: it is the drop in the measured response relative to a control, in per cent.
